From the NIST ThermoML archive (doi:10.1021/je800757j)
± gives the expanded uncertainty stated by the source.

Settings: Liquid

**Q.** With CCCC [butane] as the compound, how does the “vapor or sublimation pressure” value (353.15 K) read?
**A.** 1039 ± 27 kPa

**Q.** What about the “vapor or sublimation pressure” value (373.15 K) of the same compound?
**A.** 1586 ± 39 kPa

**Q.** And the “vapor or sublimation pressure” value (393.15 K)?
**A.** 2265 ± 56 kPa

**Q.** What about the “vapor or sublimation pressure” value (413.15 K) of the same compound?
**A.** 3156 ± 78 kPa

**Q.** With CCCCCCC [heptane] as the compound, how does the “vapor or sublimation pressure” value (433.15 K) read?
**A.** 477 ± 18 kPa

**Q.** And the “vapor or sublimation pressure” value (443.15 K)?
**A.** 587 ± 19 kPa

**Q.** What about the “vapor or sublimation pressure” value (453.15 K) of the same compound?
**A.** 703 ± 21 kPa

**Q.** For CCCCCC [hexane], which “vapor or sublimation pressure” value (393.15 K) is on record?
**A.** 410 ± 17 kPa

**Q.** And the “vapor or sublimation pressure” value (413.15 K)?
**A.** 633 ± 20 kPa

**Q.** And the “vapor or sublimation pressure” value (433.15 K)?
**A.** 918 ± 25 kPa

**Q.** And the “vapor or sublimation pressure” value (453.15 K)?
**A.** 1301 ± 33 kPa

**Q.** With CCCCC [pentane] as the compound, how does the “vapor or sublimation pressure” value (373.15 K) read?
**A.** 600 ± 20 kPa

**Q.** What about the “vapor or sublimation pressure” value (423.15 K) of the same compound?
**A.** 1620 ± 40 kPa
